Results published in ChEMBL document CHEMBL1909046, “DrugMatrix in vitro pharmacology data”.

Tests used:
[1] = DRUGMATRIX: Sodium/nucleoside co-transporter radioligand binding (ligand: nitrobenzylthioinosine); format: cell membranes, Cavia porcellus, Dunkin-Hartley, Cerebral cortex, Membrane; conditions: Not Active = under 50% inhibition at 10 µM
Adenosine receptor A1 = target: T1, Adenosine receptor A1 (Homo sapiens, UniProt P30542); format: cell membranes, Membrane; conditions: cho;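 further: radioligand binding assay at the adenosine A1 receptor, with DPCPX serving as the labelled ligand; in other assays of this panel Not Active means under 50% inhibition at 10 µM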
T1 sequence (P30542 whole entry): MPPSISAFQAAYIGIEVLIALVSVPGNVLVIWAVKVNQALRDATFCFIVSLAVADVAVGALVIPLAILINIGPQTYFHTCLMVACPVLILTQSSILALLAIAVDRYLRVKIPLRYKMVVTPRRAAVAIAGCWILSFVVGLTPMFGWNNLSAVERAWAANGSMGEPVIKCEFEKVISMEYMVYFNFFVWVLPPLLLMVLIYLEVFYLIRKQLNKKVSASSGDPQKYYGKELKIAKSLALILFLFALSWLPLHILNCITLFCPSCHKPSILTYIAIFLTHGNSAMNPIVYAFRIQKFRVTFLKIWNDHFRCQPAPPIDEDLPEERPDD

Neutrophil elastase = target: T2, Neutrophil elastase (Homo sapiens, UniProt P08246); format: tissue-based;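 further: inhibition of neutrophil elastase enzyme activity, measured with a p-nitroanilide-linked peptide substrate; in other assays of this panel Not Active means under 50% inhibition at 10 µM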
T2 sequence (P08246 whole entry): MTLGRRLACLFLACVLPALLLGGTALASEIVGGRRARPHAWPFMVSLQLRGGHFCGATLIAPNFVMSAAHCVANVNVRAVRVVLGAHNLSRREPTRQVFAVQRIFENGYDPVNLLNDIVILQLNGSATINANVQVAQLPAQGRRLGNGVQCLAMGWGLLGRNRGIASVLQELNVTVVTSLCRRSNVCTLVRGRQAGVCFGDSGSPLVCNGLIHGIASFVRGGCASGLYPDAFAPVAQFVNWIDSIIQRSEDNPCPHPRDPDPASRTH

Mu-type opioid receptor = Mu-type opioid receptor (Homo sapiens, UniProt P35372); test: DRUGMATRIX: Opiate mu (OP3, MOP) radioligand binding (ligand: [3H] Diprenorphine); format: cell membranes, CHO-K1, Membrane; conditions: cho-k1; Not Active = under 50% inhibition at 10 µM
Chain of Mu-type opioid receptor (P35372 whole entry): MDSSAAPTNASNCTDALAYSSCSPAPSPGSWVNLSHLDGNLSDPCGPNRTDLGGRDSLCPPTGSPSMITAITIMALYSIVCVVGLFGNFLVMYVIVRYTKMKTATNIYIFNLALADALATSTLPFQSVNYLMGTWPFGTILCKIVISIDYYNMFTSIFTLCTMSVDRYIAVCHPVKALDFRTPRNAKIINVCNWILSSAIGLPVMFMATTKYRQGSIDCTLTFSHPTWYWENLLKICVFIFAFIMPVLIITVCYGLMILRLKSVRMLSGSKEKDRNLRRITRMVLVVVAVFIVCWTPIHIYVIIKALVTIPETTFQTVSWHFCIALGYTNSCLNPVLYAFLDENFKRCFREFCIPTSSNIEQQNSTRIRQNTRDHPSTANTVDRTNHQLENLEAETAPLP

[2] = target: T3, Alpha-2C adrenergic receptor (Homo sapiens, UniProt P18825); test: DRUGMATRIX: Adrenergic Alpha-2C radioligand binding (ligand: [3H] MK-912); format: cell membranes, Sf9, Membrane; conditions: sf9
T3 sequence (P18825 whole entry): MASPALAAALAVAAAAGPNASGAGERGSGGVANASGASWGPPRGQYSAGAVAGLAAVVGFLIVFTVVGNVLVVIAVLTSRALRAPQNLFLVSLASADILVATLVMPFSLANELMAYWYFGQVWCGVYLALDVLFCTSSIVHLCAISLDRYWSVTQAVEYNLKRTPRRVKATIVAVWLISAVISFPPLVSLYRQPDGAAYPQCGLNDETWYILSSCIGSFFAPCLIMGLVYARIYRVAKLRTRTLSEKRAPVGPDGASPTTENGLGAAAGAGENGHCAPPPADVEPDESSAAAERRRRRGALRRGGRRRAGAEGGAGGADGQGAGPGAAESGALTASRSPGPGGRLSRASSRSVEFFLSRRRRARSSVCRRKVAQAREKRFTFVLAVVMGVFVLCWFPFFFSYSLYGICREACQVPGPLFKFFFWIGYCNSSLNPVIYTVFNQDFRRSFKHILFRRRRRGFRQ

[3] = target: Platelet-activating factor receptor (Homo sapiens, UniProt P25105); format: tissue-based; further: in other assays of this panel Not Active means under 50% inhibition at 10 µM
Chain of Platelet-activating factor receptor (P25105 whole entry): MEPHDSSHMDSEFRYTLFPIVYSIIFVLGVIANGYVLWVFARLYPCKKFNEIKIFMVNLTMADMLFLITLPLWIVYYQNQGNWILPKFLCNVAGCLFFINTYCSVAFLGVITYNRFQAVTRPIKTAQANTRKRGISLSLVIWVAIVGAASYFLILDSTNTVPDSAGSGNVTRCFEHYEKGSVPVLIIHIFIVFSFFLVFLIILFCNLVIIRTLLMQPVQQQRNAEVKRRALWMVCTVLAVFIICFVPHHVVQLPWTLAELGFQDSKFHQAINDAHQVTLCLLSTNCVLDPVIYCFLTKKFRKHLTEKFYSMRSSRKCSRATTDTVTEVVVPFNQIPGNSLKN

[4] = target: 5-hydroxytryptamine receptor 1B (Rattus norvegicus, UniProt P28564); format: cell membranes, Wistar, Cerebral cortex, Membrane; further: in other assays of this panel Not Active means under 50% inhibition at 10 µM
Chain of 5-hydroxytryptamine receptor 1B (P28564 whole entry): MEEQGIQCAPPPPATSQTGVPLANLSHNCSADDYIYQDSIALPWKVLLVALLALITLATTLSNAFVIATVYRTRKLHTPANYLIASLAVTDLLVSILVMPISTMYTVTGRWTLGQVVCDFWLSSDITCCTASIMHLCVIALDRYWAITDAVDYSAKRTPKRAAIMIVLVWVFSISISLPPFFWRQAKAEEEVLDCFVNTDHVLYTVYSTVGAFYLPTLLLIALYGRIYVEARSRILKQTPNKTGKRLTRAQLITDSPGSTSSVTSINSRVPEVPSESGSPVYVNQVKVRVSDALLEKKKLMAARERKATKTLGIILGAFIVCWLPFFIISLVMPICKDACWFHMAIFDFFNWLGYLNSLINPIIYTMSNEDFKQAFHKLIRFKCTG

[5] = DRUGMATRIX: Atrial Natriuretic Factor (ANF) radioligand binding (ligand: [125I] ANF (rat)); format: cell membranes, Cavia porcellus, Dunkin-Hartley, Adrenal gland, Membrane; conditions: Not Active = under 50% inhibition at 10 µM
[6] = DRUGMATRIX: Calcium Channel Type L, Phenylalkylamine radioligand binding (ligand: [3H] (-)-Desmethoxyverapamil (D-888)); format: cell membranes, Rattus norvegicus, Wistar, Brain, Membrane; conditions: Not Active = under 50% inhibition at 10 µM

Row | Structure (SMILES) | IC50 [1] | Ki [1] | IC50 (Adenosine receptor A1) | IC50 (Neutrophil elastase) | IC50 (Mu-type opioid receptor) | IC50 [2] | IC50 [3] | IC50 [4] | IC50 [5] | Ki [5] | IC50 [6] | Ki [6] | IC50 ([6]; read-out: IC50) [nM] | Ki ([6]; read-out: Ki) [nM] | IC50 ([1]; read-out: IC50) [nM] | Ki ([1]; read-out: Ki) [nM]
1 | N[C@H](CSC(=S)NCc1ccccc1)C(=O)O | Not Active | Not Active | Not Active | Not Active | Not Active | Not Active | Not Active | Not Active | Not Active | Not Active | Not Active | Not Active | – | – | – | –
2 | Cc1cc(C)nc(NS(=O)(=O)c2ccc(N)cc2)n1 [SULFAMETHAZINE] | Not Active | Not Active | Not Active | Not Active | Not Active | Not Active | Not Active | Not Active | Not Active | Not Active | Not Active | Not Active | – | – | – | –
3 | Cc1cccc(Nc2ccncc2S(=O)(=O)NC(=O)NC(C)C)c1 [TORSEMIDE] | Not Active | Not Active | Not Active | Not Active | Not Active | Not Active | Not Active | Not Active | Not Active | Not Active | Not Active | Not Active | – | – | – | –
4 | O=C1CCC(N2C(=O)c3ccccc3C2=O)C(=O)N1 (stereo unspecified) [THALIDOMIDE] | Not Active | Not Active | Not Active | Not Active | Not Active | Not Active | Not Active | Not Active | Not Active | Not Active | Not Active | Not Active | – | – | – | –
5 | CC(C)CC(N(C)C)C1(c2ccc(Cl)cc2)CCC1 (stereo unspecified) [SIBUTRAMINE] | Not Active | Not Active | Not Active | Not Active | Not Active | Not Active | Not Active | Not Active | Not Active | Not Active | – | – | 2720 | 2650 | – | –
6 | [H]/N=C(/N)N[C@H]1[C@H](O)[C@@H](O)[C@H](O[C@@H]2O[C@@H](C)[C@](O)(C=O)[C@H]2O[C@@H]2O[C@@H](CO)[C@H](O)[C@@H](O)[C@@H]2NC)[C@@H](N/C(N)=N\[H])[C@@H]1O [STREPTOMYCIN] | Not Active | Not Active | Not Active | Not Active | Not Active | Not Active | Not Active | Not Active | Not Active | Not Active | Not Active | Not Active | – | – | – | –
7 | CC(C)C[C@H](NC(=O)[C@@H](O)[C@H](N)Cc1ccccc1)C(=O)O [UBENIMEX] | Not Active | Not Active | Not Active | Not Active | Not Active | Not Active | Not Active | Not Active | Not Active | Not Active | Not Active | Not Active | – | – | – | –
8 | CC(C)NCC(O)COc1cccc2ccccc12 (stereo unspecified) [PROPRANOLOL] | – | – | Not Active | Not Active | Not Active | Not Active | Not Active | Not Active | – | – | – | – | – | – | – | –
9 | Cc1onc(-c2ccccc2)c1-c1ccc(S(N)(=O)=O)cc1 [VALDECOXIB] | Not Active | Not Active | Not Active | Not Active | Not Active | Not Active | Not Active | Not Active | Not Active | Not Active | Not Active | Not Active | – | – | – | –
10 | CC[C@]1(O)C[C@@H]2CN(CCc3c([nH]c4ccccc34)[C@@](C(=O)OC)(c3cc4c(cc3OC)N(C)[C@H]3[C@@](O)(C(=O)OC)[C@H](OC(C)=O)[C@]5(CC)C=CCN6CC[C@]43[C@@H]65)C2)C1 [VINBLASTINE] | Not Active | Not Active | Not Active | Not Active | Not Active | Not Active | Not Active | Not Active | Not Active | Not Active | Not Active | Not Active | – | – | – | –
11 | COCCOC(=O)C1=C(C)NC(C)=C(C(=O)OC(C)C)C1c1cccc([N+](=O)[O-])c1 (stereo unspecified) [NIMODIPINE] | – | – | Not Active | Not Active | Not Active | Not Active | Not Active | Not Active | Not Active | Not Active | Not Active | Not Active | – | – | 1270 | 433
